From patent US12552760B2, “Compounds for increasing the nicotinamide adenine dinucleotide in a subject and methods of use thereof” (The Board of Trustees of the University of Illinois, priority 2022, dated 2026)
Where two headings read alike, the source gives them in different places.

Columns and labels:
NAMPT [1] = target: T1, NAMPT (Homo sapiens, UniProt P43490); test: NP-A3-B2:NAMPT co-crystal structure (X-ray diffraction); settings: NP-A3-B2, NAM and NAMPT; 1.3-1.5 Å resolution
T1 construct: His6 (C); made in house
Procedure: X-ray diffraction crystallography. Crystals of NAMPT complexed with NAM and N-PAM were grown by hanging drop vapor diffusion at 16° C. Prior to crystallization, 11 mg/mL NAMPT protein was incubated with 10 mM NAM and 1 mM compound for 30 min on ice. Crystals of the complex were grown by mixing 1-2 μL of NAMPT complex with 2 μL of reservoir solution containing 0.1 M Tris-HCl, pH 8, 0.1 M KCl, and 24-28% PEG 2000 MME or 0.1 M Tris-HCl, pH 8.5, 0.2 M NaCl, 20% glycerol and 13-18% PEG 3350. Crystals grew overnight from the PEG 2000 MME conditions and were used to streak seed drops of NAMPT complex equilibrating against the PEG 3350 conditions.
Data collection and structure refinement. The glycerol present in the crystallization solution was sufficient to cryo-protect crystals, which were flash-cooled in liquid nitrogen. Data were collected on a MAR300 detector at 0.979 Å at the Life Sciences Collaborative Access Team beamline 21-ID-F at the Advanced Photon Source, Argonne National Laboratory. Data indexing, integration, and scaling were performed using XDS, and phases were determined by molecular replacement using Molrep and a NAMPT-NAM co-crystal structure (PDB entry: 2E5D) as search model. Rigid body refinement followed by iterative rounds of restrained refinement and model building were performed with Phenix and Coot.

THP-1 human monocytes = test: Measurement of cellular NAD^+ levels in THP-1 cell cultures (NAD/NADH-Glo); assay type: cell-based; settings: dose response study, 30 μM (FIG. 1A)
Procedure: Measurement of cellular NAD^+ levels in THP-1 cell cultures. Using FK-866 and NMN as negative and positive controls, respectively, we explored a number of cell lines to select a highly reproducible model system with good dynamic range. We optimized a commercial NAD-glo assay in the THP-1 human leukemic monocyte cell line in 96-well plates, measuring NAD^+ after incubation with test compounds for 24 hours. […] All cells were grown at 37° C., under 5% CO2 in a humidified incubator. Low passage THP-1 cells (37,500 cells/well) were seeded in 96-well plates and incubated at 37° C. and 5% CO2 for 1½ h prior to a 24 h treatment. All compounds were dissolved in DMSO, and final DMSO concentrations never exceeded 1%. The NAD^+ levels in the cells are measured using the NAD^+/NADH-Glo™ assay (Promega). The assays were performed in triplicate for each concentration and the IC50 values were determined from non-linear regression analysis of the dose-response curve generated in GraphPad Prism 9.

NAMPT [2] = target: T1, NAMPT; test: NAMPT coupled enzyme activity assay (HTS coupled three-enzyme assay); assay type: biochemical; settings: dose-response (FIG. 1B)
Excerpt: NAMPT coupled enzyme activity assay. The NAMPT enzyme assay is based on conditions from Burgos and Schramm and adapted to include a cycling reaction to quantitate NAD^+ production colorimetrically^1. The assay follows the NAMPT-catalyzed production of NMN from substrates NAM and PRPP by coupling NMN formation to the NMNAT reaction, which produces NAD^+ from NMN and ATP. The NAD^+ is then cycled by alcohol dehydrogenase (ADH) and diaphorase to continuously produce WST-1 formazan, which can be detected at 450 nm. Assays are performed at 25° C. in clear 384-well plates, with a final assay volume of 30 μL, and contain the following: 50 mM HEPES, pH 7.5, 5 mM MgCl2, 50 mM NaCl, 0.01% Triton-X 100, 2.5 mM ATP, 40 μM PRPP, 1-500 μM NAM, 1.5 μL WST-1 (Roche Cell Proliferation Reagent), 1 U/mL ADH, 0.083 U/mL diaphorase, 1.5% ethanol, 1% DMSO, 30 nM NAMPT, and 7.4 nM purified human NMNAT1. N-terminal His6-NMNAT1 and C-terminal His6-NAMPT were overexpressed and purified by metal chelate affinity chromatography. Following assay assembly, well signals were measured continuously at 450 nm on a Tecan Infinite M200 plate reader for 1 h with intermittent shaking. Slopes of the linear portions of the reaction progress curves were recorded and corrected for background by subtracting the average slope of control wells containing NAMPT inhibitor FK866.
A high-throughput screen (HTS) of 22,000 compounds was performed to identify those that augment NAMPT enzymatic activity^38. Screening used a coupled three-enzyme assay to detect conversion of NAM to NAD^+, as previously described by our group^37. […] We also established assays in which to assess the ability of our compounds to mitigate neuronal oxidative stress.

[3] = tested on: HT-22 mouse hippocampal cell line; test: TNFα-induced ROS in HT-22 cells (MitoSOX); assay type: cell-based; settings: screened against 1 μg/mL TNFα (FIG. 2A)
Procedure: Cell Culture and Drug Treatments. HT22 mouse hippocampal neuronal cells (a gift from the Salk Institute) were grown in Dulbecco's modified Eagle's medium (DMEM) containing 10% FBS and 1× Antibiotic-Antimycotic (ABAM). Cells were maintained in a humidified 5% CO2 atmosphere incubator at 37° C., and were passaged when 60-80% confluent (1-2 days) by removing media, rinsing with phosphate buffered saline (PBS), and enzymatically detaching with trypsin solution. New culture dishes were seeded with ¼ to ½ the cells from the previous dish.
All assays were performed using cells with passage number 12-50. The inner 60 wells of black-walled (Corning®3603/3604) 96-well plates were treated with poly D-lysine (30 μL/well) making sure to cover the entire well surface for 15-30 seconds and then washed thoroughly with sterile water (3×−200 μL/well). TNFα stock solutions (10 μg/mL, PBS (0.1% BSA)) were made, aliquoted, and stored at −80° C. Glutamate stock solutions were made fresh immediately before assay. All compound stock solutions (10 mM, DMSO) were made and stored at −20° C.
Cells were plated at a seeding density of 3,000-5,000 cells/well and allowed to incubate overnight. The next day (18-24 hours later) cells were pretreated with N-PAMs, carefully ensuring equivalent vehicle (DMSO/PBS) composition in each well. After 18-24 hours, stressors (glutamate or TNFα) were treated. Live cell count, ROS level, and total cell count were then assessed after another 18-24 hours.
ROS Detection. ROS levels were quantified using MitoSOX Red Mitochondrial Superoxide Indicator (Invitrogen). At treatment endpoint, the cell culture media was removed and replaced with phosphate buffered saline (PBS) containing 1 μM calcein-AM, 5 μM MitoSOX, and 10 μg/mL Hoechst dyes. Cells were incubated for 30-45 minutes and then dye-containing PBS was dumped and replaced with 100 μL/well fresh PBS. The plate was immediately analyzed in the Celigo Imaging Cytometer using the Live-Dead-Total protocol, where MitoSOX was used in place of propidium iodide. The cell counts and fluorescence intensities for living (calcein), MitoSOX-stained, and total (Hoechst) were acquired. MitoSOX average mean fluorescence intensity (“dead” average mean intensity) was used to quantify mitochondrial ROS. All readouts used were transformed into fold-change over vehicle treatment for visualization.
We set out to design assays representing the connection between OS and the multifaceted pathophysiology of aging and ND. We assessed multiple treatments in several cell lines to model OS induced by diverse factors such as neuroinflammatory signaling, neurotransmitter signaling, and direct oxidant species. Assay development highlighted the neuronal HT-22 mouse hippocampal cell line as most robust for these purpose s, and inflammatory cytokine TNFα as being a reliable and disease-relevant method for inducing ROS generation.

CL2355 worms = settings: 5 mM, 2 nematode generations; Fang, E. F. et al. 2019; cited from earlier work
APPSwe/PSEN1dE9 mice [4] = settings: 100 mg/kg (s.c.) every other day for 28 days; Yao Z. et al. 2017; cited from earlier work
Wistar rats [5] = settings: 500 mg/kg/d (i.p.) 10 days; hippocampal slices treated with 10 μM oAβ1-42 for 6 h +/− 1 mM NMN; Wang, X. et al. 2016; cited from earlier work
CD1 mice = settings: 300 mg/kg 30 minutes post ICH from tail veil for 24 h or 7 days with (300 mg/kg/d); Wei, C. C. et al. 2017; cited from earlier work
[6] = tested on: hSOD1^G93A mouse derived astrocytes and motor neurons; settings: NR or NMN, 5 mM, 24-72 h; Harlan, B. A. et al. 2019; cited from earlier work
APPSwe/PSEN1dE9 mice [7] = settings: 100 mg/kg every other day for 28 days; Long, A. N. et al. 2015; cited from earlier work
Sprague-Dawley rats [8] = settings: 100 mg/kg (i.p.) every other day for 3 months; Chandrasekaran, K. et al. 2020; cited from earlier work
[9] = tested on: APPSwe/PSEN1dE9 N2A cells; settings: 10 mM, 72 h; Long, A. N. et al. 2015; cited from earlier work
HT22 = settings: 0.1 mM & 1.0 mM, 24 h; Koh, P. 2013; cited from earlier work
3xTgAD mice = settings: 40 mg/kg/d (p.o.) 8 months; Liu, D. et al. 2013; cited from earlier work
C57BL/6 mice = settings: 125, 250, 500 mg/kg (i.p.) 1 day (acute), 5 days (sub-acute); Anderson, D. W. et al. 2008; cited from earlier work
[10] = tested on: Brown Norway rats and C57BL/6 mice; settings: 200-400 mg/kg/d (p.o., rats), 500 mg/kg/d (p.o., mice), various treatment times; Tribble J. R. et al. 2021; cited from earlier work
Wistar rats [11] = settings: 100, 300, 500 mg/kg (i.p.) 8 days; Sidhu, A. et al. 2018; cited from earlier work
Sprague-Dawley rats [12] = settings: 500 mg/kg (i.p.) 2 h after MCAO for 22 hrs; Koh, P. 2013; cited from earlier work
cultured primary neurons = settings: 2-4 mM, 6 h; Liu, D. et al. 2013; cited from earlier work

T1 sequence (P43490 whole entry): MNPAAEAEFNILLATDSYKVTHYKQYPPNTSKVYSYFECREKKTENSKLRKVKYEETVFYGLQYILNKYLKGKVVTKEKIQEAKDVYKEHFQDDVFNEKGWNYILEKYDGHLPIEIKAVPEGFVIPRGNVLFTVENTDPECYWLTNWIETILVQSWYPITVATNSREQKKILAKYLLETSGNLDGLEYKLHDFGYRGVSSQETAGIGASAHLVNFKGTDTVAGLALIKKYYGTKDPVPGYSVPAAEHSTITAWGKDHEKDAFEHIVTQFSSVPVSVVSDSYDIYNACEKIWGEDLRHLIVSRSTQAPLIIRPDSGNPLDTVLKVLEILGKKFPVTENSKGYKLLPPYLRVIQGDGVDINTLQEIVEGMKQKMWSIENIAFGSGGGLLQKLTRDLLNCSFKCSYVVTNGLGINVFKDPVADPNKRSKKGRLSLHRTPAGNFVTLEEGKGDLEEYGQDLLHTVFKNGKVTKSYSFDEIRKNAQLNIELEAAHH

For `COc1ccc(CN(CCC2(C(C)C)CCOC(C)(C)C2)C(=O)c2ccco2)cc1` (centres unmarked) [NP-A3-B2, N-[(4-Methoxyphenyl)methyl]-N-[2-[tetrahydro-2,2-dimethyl-4-(1-methylethyl)-2H-pyran-4-yl]ethyl]-2-furancarboxamide], the “binding mode in co-crystal structure” value (NAMPT [1]) was “allosteric binding of the hit to the NAMPT rear channel”, the “NAD^+ fold over control” value (THP-1 human monocytes) was 1.18 fold and the “increase in NAD^+ over control” value (THP-1 human monocytes) was 18%. The EC50 (NAMPT [2]; NAMPT activation) was 4.05 µM, the Amax (NAMPT [2]) was 1.85 fold and the “effect on ROS levels across tested concentrations” value [3] was “little effect until 40 μM”.

For `NC(=O)c1ccc[n+]([C@@H]2O[C@H](COP(=O)([O-])O)[C@@H](O)[C@H]2O)c1` [NMN, nicotinamide mononucleotide], the “cognitive decline and memory impairment” value (CL2355 worms) is given as “Ameliorated”, the APP processing (APPSwe/PSEN1dE9 mice [4]) is given as “Biased APP to α” and the Aβ aggregation (APPSwe/PSEN1dE9 mice [4]) is given as “· Decreased Aβ”. For the same molecule, the cognitive impairments (APPSwe/PSEN1dE9 mice [4]) was “Prevented”, the neuroinflammation (APPSwe/PSEN1dE9 mice [4]) was “Decreased” and the synaptic loss (APPSwe/PSEN1dE9 mice [4]) was “Prevented”. The LTP (Wistar rats [5]) was “Improved LTP”, the “NAD^+ and ATP” value (Wistar rats [5]) was “· Restored NAD^+” and the Neuroprotection (Wistar rats [5]) was “Neuroprotection”. The oxidative stress (Wistar rats [5]) was “Attenuated”, the “spatial learning and memory” value (Wistar rats [5]) was “Improved spatial” and the Neuroprotective (CD1 mice) was “Neuroprotective”. For the same molecule, the acute brain injury (CD1 mice) was “Protected against”, the “motor function recovery over 7 days” value (CD1 mice) was “Enhanced motor” and the “oxidative stress and neuroinflammation” value (CD1 mice) was “Reduced”. For the same molecule, the “Nrf2 mediated Antioxidant Response Element activation” value [6] was “Increased Nrf2”, the APP levels (APPSwe/PSEN1dE9 mice [7]) was “Decreased APP” and the mitochondrial deficits (APPSwe/PSEN1dE9 mice [7]) was “Reversed”. The Neuroprotective (Sprague-Dawley rats [8]) was “Neuroprotective”, the “brain NAD^+, metabolites, and neurotransmitters” value (Sprague-Dawley rats [8]) was “Normalized brain” and the “hippocampal CA1 volume” value (Sprague-Dawley rats [8]) was “Preserved”. The memory (Sprague-Dawley rats [8]) was “Improved memory” and the mitochondrial function (Sprague-Dawley rats [8]) was “Improved”.

In the case of `NC(=O)c1ccc[n+]([C@@H]2O[C@H](COP(=O)([O-])OP(=O)(O)OC[C@H]3O[C@@H](n4cnc5c(N)ncnc54)[C@H](O)[C@@H]3O)[C@@H](O)[C@H]2O)c1` [NAD^+, Nicotinamide adenine dinucleotide], the mitochondrial deficits [9] is given as “Reversed”.

In the case of `NC(=O)c1cccnc1` [NAM, nicotinamide], the Neuroprotection (HT22) is listed as “Neuroprotection”, the “hippocalcin (crucial neuronal protein) depletion” value (HT22) is listed as “Prevented” and the “Aβ and p-Tau” value (3xTgAD mice) is listed as “Decreased Aβ”. The cognitive decline (3xTgAD mice) was “Ameliorated”, the “dopamine concentration in both paradigms” value (C57BL/6 mice) was “Recovered” and the Retinal ganglion neuroprotection [10] was “neuroprotection”. For the same molecule, the metabolic disruption [10] was “Prevented”, the mitochondrial function [10] was “Improved” and the Neuroprotection (Wistar rats [11]) was “Neuroprotection”. For the same molecule, the motor function (Wistar rats [11]) was “Improved motor”, the oxidative stress (Wistar rats [11]) was “Prevented” and the Decreased infarct volume (Sprague-Dawley rats [12]) was “volume by 60%”. For the same molecule, the hippocalcin depletion (Sprague-Dawley rats [12]) was “Prevented” and the Neuroprotection (cultured primary neurons) was “Neuroprotection”.
